In series [1] the target is T1, dihydrofolate reductase (DHFR) from Toxoplasmosis gondii (Tx) (Toxoplasma gondii, UniProt Q07422).
T1 sequence (Q07422 1-610): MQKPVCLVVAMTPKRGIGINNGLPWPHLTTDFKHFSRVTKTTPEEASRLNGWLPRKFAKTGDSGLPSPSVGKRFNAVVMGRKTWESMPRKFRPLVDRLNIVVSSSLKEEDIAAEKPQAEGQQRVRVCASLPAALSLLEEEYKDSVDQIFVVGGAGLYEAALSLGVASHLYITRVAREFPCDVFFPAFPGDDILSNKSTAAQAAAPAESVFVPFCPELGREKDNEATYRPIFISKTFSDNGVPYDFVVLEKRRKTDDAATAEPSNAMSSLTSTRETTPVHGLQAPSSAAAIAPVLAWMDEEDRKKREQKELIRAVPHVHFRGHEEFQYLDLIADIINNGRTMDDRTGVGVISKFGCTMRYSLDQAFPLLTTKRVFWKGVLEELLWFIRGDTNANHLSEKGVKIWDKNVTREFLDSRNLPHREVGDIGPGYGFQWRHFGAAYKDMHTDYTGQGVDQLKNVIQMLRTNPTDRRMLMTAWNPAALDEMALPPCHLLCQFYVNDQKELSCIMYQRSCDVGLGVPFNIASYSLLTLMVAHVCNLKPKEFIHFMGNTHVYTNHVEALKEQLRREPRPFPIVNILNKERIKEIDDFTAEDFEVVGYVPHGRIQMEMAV
Kind of series: Inhibition of dihydrofolate reductase from Toxoplasmosis gondii (Tx DHFR). The format is biochemical. As to conditions: for Selectivity Ratio: RL DHFR/Tx DHFR: IC50 RL DHFR divided by IC50 Tx DHFR; for IC50: Toxoplasma gondii DHFR, read-out: Tx DHFR Inhibitory Concentration (IC50). The text has this: (§1) The following examples are intended to illustrate the invention, and should not be construed as limiting the invention in any way. Standard test procedures familiar to those skilled in the art were used in the examples, such as those procedures described by Gangjee, A., et al., in “5-Arylthio-substituted 2-amino-4-oxo-6-methyl pyrrolo[2,3-d]pyrimidine antifolates as thymidylate synthase inhibitors and antitumor agents”, J. Med. Chem., Vol. 38, pp. 4495-4502 (1995); “Effect of bridge region variation on antifolate and antitumor activity of classical 5-substituted 2,4-diamino furo [2,3-d]pyrimidines”, J. Med. Chem., Vol. 38, pp. 3798-3805 (1995); and “Novel 2 ,4-diamino-5-substituted-pyrrolo[2,3-d]pyrimidines As Classical and Non-Classical Antifolate Inhibitors of Dihydrofolate Reductases”, J. Med. Chem., Vol. 38, pp. 2158-2165 (Jun. 6, 1995) and references disclosed therein.
(§2) The compounds described in Table 1 were evaluated as inhibitors of dihydrofolate reductase (DHFR) from Toxoplasmosis gondii (Tx) and rat liver (RL). The evaluation of the compounds consisted of determining the IC50 values and selectivity ratios of each compound against Tx DHFR and RL DHFR. The IC50 value is the concentration of a compound required to inhibit the dihydrofolate reductase activity by 50 percent (%). […] The selectivity ratio is a measure of the selectivity of a compound for Tx DHFR and is expressed as the IC50 value of the DHFR from rat liver (RL) divided by the IC50 value of the Tx DHFR. For example, the selectivity ratio of a compound is calculated by the following formula: [formula]

The target in series [2] is T2, dihydrofolate reductase (DHFR) from rat liver (RL) (Rattus norvegicus, UniProt Q920D2).
T2 construct: the IC50 value of the DHFR from rat liver (RL); from tissue; host or cells: rat liver
T2 sequence (Q920D2 1-187): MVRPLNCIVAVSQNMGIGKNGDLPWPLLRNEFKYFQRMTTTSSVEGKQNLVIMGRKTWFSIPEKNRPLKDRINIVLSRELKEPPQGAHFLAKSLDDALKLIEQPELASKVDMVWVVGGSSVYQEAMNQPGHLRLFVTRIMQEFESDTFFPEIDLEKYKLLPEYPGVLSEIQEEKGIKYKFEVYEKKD
Put plainly: Inhibition of dihydrofolate reductase from rat liver (RL DHFR). As to conditions: for IC50: read-out: RL DHFR Inhibitory Concentration (IC50). In kind it is biochemical.
Excerpt: as §1, §2

Series [3] deals with T3, DHFR from Pneumocystis carinii (PC) (Pneumocystis carinii, UniProt P16184).
T3 sequence (P16184 1-206): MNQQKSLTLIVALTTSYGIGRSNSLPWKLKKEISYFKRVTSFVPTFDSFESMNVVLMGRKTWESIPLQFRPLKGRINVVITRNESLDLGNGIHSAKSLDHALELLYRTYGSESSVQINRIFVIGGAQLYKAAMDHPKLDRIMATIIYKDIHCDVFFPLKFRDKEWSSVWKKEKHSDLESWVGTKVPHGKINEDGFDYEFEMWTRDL
Kind of series: Inhibition of DHFR from Pneumocystis carinii (Pc). In kind it is biochemical.

Marks after values point to notes of the source that are not given here. A value given as a limit tells only on which side of the number the result lay.

For `Nc1nc(N)c(Sc2cccc3ccccc23)c(=O)[nH]1` [Compound 165], in series [1], the “Selectivity Ratio: RL DHFR/Tx DHFR” value came out at 198.4 and the IC50 turned out to be 0.49 µM. Besides, the IC50 in series [2] stood at 97.2 µM.
The corresponding values for `Nc1nc(N)c(Sc2ccncc2)c(=O)[nH]1` [Compound 179] are 11.9, 8.5 µM and 101 µM.
The corresponding values for `Nc1nc(N)c(Sc2ccc(Cl)cc2)c(=O)[nH]1` [Compound 167] are 90.0, 0.22 µM and 19.8 µM.
On to `Nc1nc(N)c(Sc2ccc(C(=O)O)cc2)c(=O)[nH]1` [Compound 170], for which the “Selectivity Ratio: RL DHFR/Tx DHFR” value in series [1] is reported as 2.3. Also, the IC50 came out at 53.8 µM in series [1], 89.5 µM in series [3] (Pneumocystis carinii DHFR) and 122 µM in series [2]. In series [3] (IC50 RL DHFR divided by IC50 Pc DHFR), the RL/Pc selectivity ratio was found to be 1.4.
As for `Nc1nc(N)c(Sc2nc(-c3ccccc3)cs2)c(=O)[nH]1` [Compound 199], in series [1], the “Selectivity Ratio: RL DHFR/Tx DHFR” value was found to be 4.3 and the IC50 is 12.2 µM. In series [2], the IC50 was 53 µM.
For `Nc1nc(N)c(SCc2ccc(Cl)c(Cl)c2)c(=O)[nH]1` [Compound 190], in series [1], the “Selectivity Ratio: RL DHFR/Tx DHFR” value was determined as 16.1 and the IC50 was 1.5 µM. Moreover, the IC50 in series [2] amounted to 24.2 µM.
With `Cc1cccc(CSc2c(N)nc(N)[nH]c2=O)c1` [Compound 196], in series [1], the “Selectivity Ratio: RL DHFR/Tx DHFR” value is on record as >7.18 # and the IC50 came out at 11.5 µM. Also, the “RL DHFR inhibition at 90 μM” value in series [2] (@ 90 μM) came out at 3% @ 90 μM.
In the case of `COc1ccccc1Sc1c(N)nc(N)[nH]c1=O` [Compound 198], in series [1], the “Selectivity Ratio: RL DHFR/Tx DHFR” value is 45.3 and the IC50 worked out at 5.8 µM. For the same molecule, the IC50 in series [2] worked out at 263 µM.
The corresponding values for `Nc1nc(N)c(Sc2ccccc2Cl)c(=O)[nH]1` [Compound 171] are 13.4, 0.35 µM and 4.7 µM.
The corresponding values for `COc1cccc(Sc2c(N)nc(N)[nH]c2=O)c1` [Compound 175] are 92.1, 0.58 µM and 53.4 µM.
The corresponding values for `Nc1nc(N)c(SCc2ccccc2Cl)c(=O)[nH]1` [Compound 197] are 3.7, 2.2 µM and 8.2 µM.
Turning to `Nc1nc(N)c(Sc2ccccn2)c(=O)[nH]1` [Compound 188], in series [1], the “Selectivity Ratio: RL DHFR/Tx DHFR” value was 24.9 and the IC50 is 4.7 µM. In addition, the IC50 in series [2] is 117 µM.
The corresponding values for `Nc1nc(N)c(SCc2ccc(Cl)cc2Cl)c(=O)[nH]1` [Compound 193] are 10, 0.7 µM and 7 µM.
The corresponding values for `Nc1nc(N)c(Sc2c(Cl)cccc2Cl)c(=O)[nH]1` [Compound 176] are 10.3, 1.7 µM and 17.5 µM.
The corresponding values for `Nc1nc(N)c(Sc2ccc(Cl)cc2Cl)c(=O)[nH]1` [Compound 177] are 16.4, 0.14 µM and 2.3 µM.
Consider `Nc1nc(N)c(Sc2cc(Cl)cc(Cl)c2)c(=O)[nH]1` [Compound 184], for which, in series [1], the “Selectivity Ratio: RL DHFR/Tx DHFR” value was 74.8 and the IC50 worked out at 0.27 µM. Also, the IC50 in series [2] stood at 20.2 µM.
Take `Nc1nc(N)c(Sc2ccc3ccccc3c2)c(=O)[nH]1` [Compound 174]: in series [1], the “Selectivity Ratio: RL DHFR/Tx DHFR” value was found to be 85.7 and the IC50 is 0.35 µM. The IC50 in series [2] turned out to be 30 µM.
Take `COc1ccc(OC)c(Sc2c(N)nc(N)[nH]c2=O)c1` [Compound 169]: the “Selectivity Ratio: RL DHFR/Tx DHFR” value in series [1] is 142.5. Also, the IC50 in series [1] was 0.2 µM; in series [2] it was 28.5 µM.
For `Nc1nc(N)c(Sc2ccc([N+](=O)[O-])cc2)c(=O)[nH]1` [Compound 185, 2,4-diamino-6-oxo-5-(4′-nitrophenylthio)pyrimidine], the melting point (as a rule, the temperature, or range, at which the solid turns liquid) is > 300 °C (dec.). In addition, in series [1], the “Selectivity Ratio: RL DHFR/Tx DHFR” value is given as 55.6 and the IC50 is 0.27 µM. Also, the IC50 in series [2] is 15 µM.
Take `Nc1nc(N)c(SCc2ccc(Br)cc2)c(=O)[nH]1` [Compound 202]: in series [1], the “Selectivity Ratio: RL DHFR/Tx DHFR” value came to 24.6 and the IC50 was determined as 1.9 µM. In series [2], the IC50 came to 46.7 µM.
The corresponding values for `Cc1ccc(CSc2c(N)nc(N)[nH]c2=O)cc1` [Compound 194] are 25.4, 7.6 µM and 193 µM.
The corresponding values for `COc1cccc(CSc2c(N)nc(N)[nH]c2=O)c1` [Compound 191] are 10.1, 6.6 µM and 66.8 µM.
Take `Nc1nc(N)c(SCc2ccc(Cl)cc2)c(=O)[nH]1` [Compound 180]: in series [1], the “Selectivity Ratio: RL DHFR/Tx DHFR” value is >3.16# and the IC50 came to 16.6 µM. Besides, the “RL DHFR inhibition at 60 μM” value in series [2] (@ 60 μM) is recorded as 26% @ 60 μM.
For the molecule `Nc1nc(N)c(SCc2ccccc2)c(=O)[nH]1` [Compound 187], in series [1], the “Selectivity Ratio: RL DHFR/Tx DHFR” value came to 7.7 and the IC50 turned out to be 5.3 µM. Further, the IC50 in series [2] came to 40.7 µM.
On to `COc1ccc(Sc2c(N)nc(N)[nH]c2=O)cc1OC` [Compound 181], for which, in series [1], the “Selectivity Ratio: RL DHFR/Tx DHFR” value is >35.2# and the IC50 was 1.9 µM. In addition, the inhibition (usually the percentage by which the read-out fell short of the control) at 67 µM in series [2] (@ 67 μM) came out at 19%.

The record behind these values is patent US6423720B1, “Pyrimidine compounds and methods for making and using the same” (Duquesne University of the Holy Ghost, priority 2001, dated 2002).
